Drawing on BindingDB's records for doi:10.1074/jbc.M114.559062 (Case Western Reserve University School of Medicine, 2014), this text covers Kd for 3 molecules.

Assay [1] addresses T1, Fatty acid-binding protein 5-ANS (Mus musculus, UniProt Q05816).
T1 sequence (Q05816 whole entry): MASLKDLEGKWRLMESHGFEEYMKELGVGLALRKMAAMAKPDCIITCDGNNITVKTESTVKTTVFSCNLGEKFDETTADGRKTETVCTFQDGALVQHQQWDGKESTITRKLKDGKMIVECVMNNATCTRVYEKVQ
As to the kind of experiment: Fluorescence Competition Assay. As for the experimental part: (§1) The method entails two steps [Lin et al., Biochemistry, 38:185-190]. In the first step, the Kd for association of FABP5 with the fluorescent lipid probe anilinonaphtalene-8-sulfonic acid (ANS) was measured by fluorescence titrations. Kd values for nonfluorescent ligands were then measured by monitoring their ability to compete with the probe for binding. FABP5 was precomplexed with ANS and titrated with ligands. Ligand binding was followed by monitoring the decrease in fluorescence upon displacement of the probe from the protein.

The target in assay [2] is T2, Fatty acid-binding protein 5 (Mus musculus, UniProt Q05816).
T2 sequence (Q05816 whole entry): T1 sequence (Q05816 whole entry)
As to the kind of experiment: Fluorescence Competition Assay. The protocol:
as §1

In general, Kd refers to the constant that tells how readily two partners part at equilibrium.

The molecule `CCCCC/C=C\C/C=C\C/C=C\C/C=C\CCCC(=O)NCCO` [Arachidonoyl ethanolamide] returned a Kd in assay [1] of 100 nM.

`O=S(=O)(O)c1cccc2cccc(Nc3ccccc3)c12` [ANS] displayed a Kd in assay [2] of 70 nM. `CCCCC/C=C\C/C=C\C/C=C\C/C=C\CCCC(=O)O` [[1-14C]Arachidonic acid] returned a Kd in assay [1] of 42.1 nM.
